pIC50: −log10 of the molar value.
Biological target: T1, human CCR-3 (Homo sapiens, UniProt P51677)
T1 construct: expressed in transfected cells; host or cells: rat basophil leukemia (RBL-2H3) cells, membranes
T1 sequence (P51677 1-355): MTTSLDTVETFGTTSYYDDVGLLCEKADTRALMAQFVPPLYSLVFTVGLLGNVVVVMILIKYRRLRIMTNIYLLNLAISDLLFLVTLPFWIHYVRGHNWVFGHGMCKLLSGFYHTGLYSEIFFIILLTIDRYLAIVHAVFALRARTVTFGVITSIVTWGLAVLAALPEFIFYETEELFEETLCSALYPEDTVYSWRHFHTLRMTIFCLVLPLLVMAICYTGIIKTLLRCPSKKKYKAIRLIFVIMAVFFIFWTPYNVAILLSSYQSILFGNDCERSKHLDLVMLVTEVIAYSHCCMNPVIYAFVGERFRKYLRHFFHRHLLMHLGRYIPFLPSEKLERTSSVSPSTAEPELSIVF
Test: CCR-3 Binding Assay ([125I]-human eotaxin SPA)
Conditions: inhibition of [125I]-human eotaxin binding to human CCR-3, membranes of RBL-2H3 cells expressing CCR3
Method: In this assay the effect of agents of the invention on the binding of human eotaxin to human CCR-3 is determined. Recombinant cells expressing human CCR-3 are captured by wheatgerm agglutinin (WGA) polyvinyltoluidene (PVT) SPA beads (available from Amersham), through a specific interaction between the WGA and carbohydrate residues of glycoproteins on the surface of the cells. [^125I]-human eotaxin (available from Amersham) binds specifically to CCR-3 receptors bringing the [^125I]-human eotaxin in close proximity to the SPA beads. Emitted â-particles from the [^125I]-human eotaxin excite, by its proximity, the fluorophore in the beads and produce light.
Preparation of Assay Buffer: 5.96 g HEPES and 7.0 g sodium chloride are dissolved in distilled water and 1M aqueous CaCl2 (1 mL) and 1M aqueous MgCl2 (5 mL) are added. The pH is adjusted to 7.6 with NaOH and the solution made to a final volume of 1 L using distilled water. 5 g bovine serum albumin and 0.1 g sodium azide are then dissolved in the solution and the resulting buffer stored at 4° C. A Complete™ protease inhibitor cocktail tablet (available from Boehringer) is added per 50 mL of the buffer on the day of use.
Preparation of Homogenisation Buffer: Tris-base (2.42 g) is dissolved in distilled water, the pH of the solution is adjusted to 7.6 with hydrochloric acid and the solution is diluted with distilled water to a final volume of 1 L. The resulting buffer is stored at 4° C. A Complete™ protease inhibitor cocktail tablet is added per 50 mL of the buffer on the day of use.
Preparation of membranes: Confluent rat basophil leukemia (RBL-2H3) cells stably expressing CCR3 are removed from tissue culture flasks using enzyme-free cell dissociation buffer and resuspended in phosphate-buffered saline. […]
The assay is performed in a final volume of 250 μL per well of an Optiplate (ex Canberra Packard). […] The resulting scintillations are counted using a Canberra Packard TopCount, each well being counted for 1 minute. […]

| pIC50 | Compound |
| --- | --- |
| 8.22 | COc1ccc(C#N)cc1/C=C/C(=O)N[C@H](CO)CN1CCC(Cc2ccc(F)cc2)CC1 [Example 4, (E)-3-(5-Cyano-2-methoxy-phenyl)-N-{(S)-2-[4-(4-fluoro-benzyl)-piperidin-1-yl]-1-hydroxymethyl-ethyl}-acrylaniide] |
| 7.46 | COc1ccc(Br)cc1/C=C/C(=O)NCCN1CCC(Cc2ccc(F)cc2)CC1 [Example 3, (E)-3-(5-Bromo-2-methoxy-phenyl)-N-{2-[4-(4-fluoro-benzyl)-piperidin-1-yl]-ethyl}-acrylamide] |
| 8.22 | COc1ccc(C#N)cc1/C=C/C(=O)N[C@H](CO)CN1CCC(Cc2ccc(Cl)cc2)CC1 [Example 2, (E)-3-(5-Cyano-2-methoxy-phenyl)-N-{(S)-2-[4-(4-chloro-benzyl)-piperidin-1-yl]-1-hydroxymethyl-ethyl}-acrylamide] |
